From patent US9439928B2, “Method for combined conditioning and chemoselection in a single cycle” (THE REGENTS OF THE UNIVERSITY OF CALIFORNIA, priority 2011, dated 2016)
Several values for one entry are separate records, joined by “and”; a condition that tells them apart may be missing. Equal values may be shown once. Read-outs that look alike come from different tables or passages of the source.

What was measured:
[1] = system: Hprt-shRNA transduced hematopoietic cells; details: total body irradiation preconditioning; 6TG 0.25-2 mg/kg, short periods, started 4 weeks or more after transplantation; cited from earlier work
[2] = system: BM of HPRT-wt recipients; test: Transplantation of HPRT-deficient BM after 6TG conditioning alone in HPRT-wt recipients; type: in vivo, mice; details: day 4
Description: After conditioning, HPRT-wt recipients were then transplanted with BM from HPRT-deficient congenic donors (CD45.2),

[3] = system: HPRT-wt CD45.1 recipients of HPRT-deficient CD45.2 BM; test: Immunophenotypic analysis of hematopoietic tissues 4 months post-transplantation, congeneic CD45.1/CD45.2 transplant model; type: in vivo, mice; details: n=5
Description: Multi-lineage reconstitution of lymphohematopoiesis by donor-derived progenitor cells was evaluated 4 months after HSCT with combined 6TG preconditioning and in vivo chemoselection, i.e., 3 months after the end of the 4-week chemoselection period.

[4] = cited from earlier work
[5] = system: BM of HPRT-deficient mice; details: mouse, in vivo, 10 mg/kg
Description: (§1) C57BL/6J and B6.129P2-Hprt1^b-m3/J mice were injected intraperitoneally (i.p.) with 200 μl of varying doses of 6TG (Sigma-Aldrich, Saint Louis, Mo.) at different time points as described in the figure legends. Control animals were i.p. injected with 200 μl of sterile H2O.
After blocking with Mouse BD Fc Block (BD Biosciences, San Jose, Calif.), BM, PBL, thymus, or spleen cells were stained with FITC-, PE-, PerCP- or APC-conjugated rat anti-mouse antibodies against CD45, CD45.2, CD4, CD8, Mac1/Gr1, B220, Sca-1, c-kit, and lineage antibody cocktail. Antibodies were received from Biolegend (San Diego, Calif.) or BD Biosciences. Flow cytometric data were acquired on a BD LSRII running BD FACSDiva (BD Biosciences) and analyzed using FlowJo software (TreeStar, Ashland, Oreg.) (Supplementary Figure S2).

[6] = system: HPRT-wt mice; test: Chronic low-dose 6TG myelotoxicity in HPRT-wt mice; details: for survival: over 60 days; for BM histology: mouse, in vivo
[7] = system: secondary female recipients of HPRT-deficient male donor BM; test: Serial transplantation into secondary recipients with 6TG conditioning and chemoselection; type: in vivo, mice
Description: To further evaluate whether the optimized regimen combining 6TG conditioning with chemoselection selects for long-term repopulating HSCs, we next transplanted BM from primary recipients at 7 months post-transplantation into secondary recipients using the same regimen. The secondary transplant recipients were then maintained for 3 months after the end of their 4-week course of 6TG in vivo chemoselection (Supplementary Figure S3). After 6TG conditioning and chemoselection, HPRT-deficient male donor cells that had engrafted primary recipients were able to serially repopulate secondary female recipients at high levels, (95.5%±1.1%, as determined by XY-FISH).

[8] = system: HPRT-deficient mice; test: Chronic low-dose 6TG treatment in HPRT-deficient mice
Description: as §1
Necropsy of all mice used in this study and histological examination of all thoracic and abdominal organs and bone marrow was performed by the UCLA Division of Laboratory Animal Medicine Diagnostic Service Laboratory. Tissues were routinely processed or decalcified if necessary, and paraffin sections were cut and stained with hematoxylin and eosin (H&E).
HPRT-wt and HPRT-deficient mice (n=3 per group) were injected i.p. with vehicle alone, 0.25 mg/kg, 0.5 mg/kg, 1.0 mg/kg, 2.5 mg/kg, or 5.0 mg/kg 6TG every 3 days for up to 60 days.

[9] = system: BM of HPRT-wt recipients of HPRT-deficient BM; test: Immunophenotypic analysis of BM at 4, 7 and 12 months post-transplantation with 6TG conditioning and chemoselection; type: in vivo, mice; details: for B220+ cells, BM (%) / CD4+ cells, BM (%) / CD8+ cells, BM (%) / KLS (HSC) cells, BM (%) / Mac1+/Gr1+ cells, BM (%): % of total CD45+ cells; for CD45+ cells, BM (%): mean ± SD
Description: The relative percentages of CD4+ and CD8+ cells, B220+ cells, and Mac-1+/Gr1+ cells, as well as KLS (lin^−/sca-1^+/c-kit^+) HSC, were determined in BM by immunophenotyping at 4 months, 7 months, and 12 months (Table 6), and compared to treatment-naïve female HPRT-wt (Table 2) and treatment-naïve male HPRT-deficient (Table 3) control mice. […] Thus, HPRT-deficient donor-derived marrow was able to achieve long-term reconstitution of normal hematopoiesis for at least 12 months post-transplantation.

[10] = system: HPRT-wt female recipients of HPRT-deficient male BM; details: for donor-derived BM engraftment, XY-FISH / donor-derived PBL, XY-FISH: 5 mg/kg x 4 weeks regimen
Description: Female recipient C57BL/6J (HPRT-wt) or B6.SJL-Ptprc^aPepc^b/BoyJ (HPRT-wt, CD45.1) mice were treated with 10 mg/kg 6TG by i.p. injection 48 hrs before HSCT. For HSCT, 0.8-1×10^7 nucleated BM cells isolated from B6.129P2-Hprt1^b-m3/J male mice (CD45.21 were intravenously injected into HPRT-wt recipients. 6TG (10 mg/kg) was again administered by i.p. injection 2 hrs later, and every 3 days thereafter, at 5 mg/kg for 4 weeks. Serial transplantation into secondary recipient mice was performed using the same cell dose and 6TG preconditioning/chemoselection regimen as above, but using BM from primary recipient mice that had undergone transplantation with 6TG in vivo chemoselection 6 months previously.
FISH was performed on BM and PBL cells using the mouse-specific Whole Chromosome-Y paint probe/RAB9 (XqF1) DNA probes mix (Kreatech, Amsterdam, Netherlands) according to the manufacturer's protocol. To determine the percentage of male donor HPRT-wt cells in the female recipient C57BL/6J mice, 200 nuclei per slide were counted using a fluorescence microscope (Zeiss) equipped with appropriate dual and triple-colour filters.
Accordingly, female HPRT-wt mice were preconditioned with 6TG (10 mg/kg i.p.), with one dose administered 48 hours prior (Day −2) and one dose administered on the day of transplantation (Day 0) per the conditioning schedule established previously. […] Analysis was performed immediately after the in vivo chemoselection period at 2 weeks or 4 weeks, respectively (FIG. 4).

[11] = secondary recipients, 3 months after end of 4-week chemoselection, mean ± SD, n=6
[12] = secondary recipients, % of total CD45+ cells, n=6
[13] = 4, 7 and 12 months after transplantation

Compound: Nc1nc2nc[nH]c2c(=S)[nH]1 [6TG, 6-thioguanine]
- engraftment levels [1]: 5-50%
- count of nucleated BM cells recovered ([2]; 6TG 10 mg/kg i.p. Day -2 and Day 0, HPRT-deficient BM transplant, n=4): 3.8×10^6±0.5×10^6
- total BM cell population derived from donor HPRT-deficient CD45.2+ hematopoietic cells (flow cytometry) ([2]; 6TG 10 mg/kg i.p. Day -2 and Day 0 conditioning alone): 17.8%±4.4
- B220+ cells, BM (%) ([3]; % of total CD45.2+ cells): 29.3 ± 6.3%
- B220+ cells, PBL (%) ([3]; % of total CD45.2+ cells): 45.4 ± 3.8%
- B220+ cells, Spleen (%) ([3]; % of total CD45.2+ cells): 58.2 ± 8.6%
- CD4+ cells, BM (%) ([3]; % of total CD45.2+ cells): 3.2 ± 1.3%
- CD4+ cells, PBL (%) ([3]; % of total CD45.2+ cells): 17.0 ± 3.0%
- CD4+ cells, Spleen (%) ([3]; % of total CD45.2+ cells): 22.6 ± 3.6%
- CD4+ cells, Thymus (%) ([3]; % of total CD45.2+ cells): 10.4 ± 2.8%
- CD4+/CD8+ cells, Thymus (%) ([3]; % of total CD45.2+ cells): 79.3 ± 4.2%
- CD8+ cells, BM (%) ([3]; % of total CD45.2+ cells): 3.0 ± 1.3%
- CD8+ cells, PBL (%) ([3]; % of total CD45.2+ cells): 12.7 ± 0.9%
- CD8+ cells, Spleen (%) ([3]; % of total CD45.2+ cells): 14.9 ± 2.1%
- CD8+ cells, Thymus (%) ([3]; % of total CD45.2+ cells): 4.3 ± 0.8%
- Mac1+/Gr1+ cells, BM (%) ([3]; % of total CD45.2+ cells): 80.68 ± 6.1%
- Mac1+/Gr1+ cells, PBL (%) ([3]; % of total CD45.2+ cells): 28.2 ± 3.3%
- Mac1+/Gr1+ cells, Spleen (%) ([3]; % of total CD45.2+ cells): 14.1 ± 1.6%
- CD45.2+ cells, BM (%) ([3]; mean ± SD): 76.1 ± 9.3%
- CD45.2+ cells, PBL (%) ([3]; mean ± SD): 73.8 ± 5.2%
- CD45.2+ cells, Spleen (%) ([3]; mean ± SD): 65.9 ± 5.2%
- CD45.2+ cells, Thymus (%) ([3]; mean ± SD): 89.7 ± 8.3%
- effect of high single oral dose ([4]; as much as 35 mg/kg in a single oral dose): reversible myelosuppression
- absorption after oral 6TG administration ([4]; oral, estimated): ~30%
- B220+ cells in BM [5]: 10.7 ± 3.5%
- BM histology (H&E) [5]: completely unaffected
- CD4+ cells in BM [5]: 2.9 ± 1.7%
- CD8+ cells in BM [5]: 2.7 ± 0.4%
- CD45+ cells in BM [5]: 90.0 ± 2.0%
- KLS (HSC) cells in BM [5]: 2.0 ± 0.6%
- Mac1+/Gr1+ cells in BM [5]: 79.3 ± 2.9%
- count of nucleated BM cells obtained from one femur and tibia [5]: 1.5×10^7±0.3×10^7
- survival ([6]; HPRT-wt, 0.25 mg/kg 6TG i.p. every 3 days, n=3): 100%
- survival ([6]; HPRT-wt, 0.5 mg/kg 6TG i.p. every 3 days, n=3): 100%
- deaths occurred on Day ([6]; HPRT-wt, 1.0 mg/kg 6TG every 3 days, n=3, 1 mg/kg): 38 and 42 and 51
- Day of sacrifice necessitated by distress, anemia and weight loss ([6]; HPRT-wt, 2.5 mg/kg 6TG every 3 days, 22.5 mg/kg total dosage): 28
- Day of sacrifice necessitated by distress, anemia and weight loss ([6]; HPRT-wt, 5.0 mg/kg 6TG every 3 days, 35 mg/kg total dosage): 22
- BM histology ([6]; 0.25 mg/kg): normal cellularity
- BM histology ([6]; 0.5 mg/kg): normal cellularity
- BM histology ([6]; 1 mg/kg): several apoptotic figures and more blast cells
- BM histology ([6]; 2.5 mg/kg): reduced cellularity and widespread apoptosis
- BM histology ([6]; 5 mg/kg): markedly depleted
- repopulation of secondary female recipients by HPRT-deficient male donor cells, XY-FISH ([7]; BM from primary recipients at 7 months, same 6TG regimen): 95.5%±1.1
- CD45+ cells, BM (%) [7, 11]: 84.6 ± 4.7%
- CD45+ cells, PBL (%) [7, 11]: 95.8 ± 1.4%
- B220+ cells, BM (%) [7, 12]: 19.1 ± 2.9%
- B220+ cells, PBL (%) [7, 12]: 33.3 ± 12.3%
- CD4+ cells, BM (%) [7, 12]: 4.1 ± 1.0%
- CD4+ cells, PBL (%) [7, 12]: 7.0 ± 3.3%
- CD8+ cells, BM (%) [7, 12]: 2.4 ± 0.8%
- CD8+ cells, PBL (%) [7, 12]: 7.0 ± 3.2%
- Mac1+/Gr1+ cells, BM (%) [7, 12]: 78.3 ± 4.7%
- Mac1+/Gr1+ cells, PBL (%) [7, 12]: 31.6 ± 11.7%
- survival ([8]; 0.25-5.0 mg/kg 6TG every 3 days, up to 105 mg/kg total dose, 60 days): survived for the duration of the experiment
- histology of other tissues (heart, lung, liver, pancreas, kidney, spleen) ([8]; chronic 6TG, Day 60): No significant treatment-related abnormalities
- BM pathology ([8]; regardless of 6TG dosage, Day 60): No significant BM pathology
- B220+ cells, BM (%) ([9]; 4 months post-transplantation): 51.8 ± 2.4%
- CD4+ cells, BM (%) ([9]; 4 months post-transplantation): 2.5 ± 0.6%
- CD8+ cells, BM (%) ([9]; 4 months post-transplantation): 1.9 ± 0.1%
- KLS (HSC) cells, BM (%) ([9]; 4 months post-transplantation): 7.8 ± 1.0%
- Mac1+/Gr1+ cells, BM (%) ([9]; 4 months post-transplantation): 77.0 ± 13.0%
- CD45+ cells, BM (%) ([9]; 4 months post-transplantation): 91.6 ± 1.9%
- B220+ cells, BM (%) ([9]; 7 months post-transplantation): 32.9 ± 3.8%
- CD4+ cells, BM (%) ([9]; 7 months post-transplantation): 3.8 ± 0.2%
- CD8+ cells, BM (%) ([9]; 7 months post-transplantation): 2.2 ± 0.4%
- KLS (HSC) cells, BM (%) ([9]; 7 months post-transplantation): 7.0 ± 1.1%
- Mac1+/Gr1+ cells, BM (%) ([9]; 7 months post-transplantation): 80.8 ± 2.3%
- CD45+ cells, BM (%) ([9]; 7 months post-transplantation): 94.3 ± 2.1%
- B220+ cells, BM (%) ([9]; 12 months post-transplantation): 11.5 ± 2.8%
- CD4+ cells, BM (%) ([9]; 12 months post-transplantation): 2.8 ± 2.7%
- CD8+ cells, BM (%) ([9]; 12 months post-transplantation): 1.8 ± 0.6%
- KLS (HSC) cells, BM (%) ([9]; 12 months post-transplantation): 1.8 ± 0.6%
- Mac1+/Gr1+ cells, BM (%) ([9]; 12 months post-transplantation): 72.3 ± 5.4%
- CD45+ cells, BM (%) ([9]; 12 months post-transplantation): 82.5 ± 4.9%
- donor-derived BM engraftment, XY-FISH ([10]; 4 months after transplantation): 97.7%±0.5
- donor-derived PBL, XY-FISH ([10]; 4 months after transplantation, p=0.01): 67.4%±10.6
- donor-derived BM engraftment, XY-FISH ([10]; 7 months after transplantation): 94.7%±1.9
- donor-derived PBL, XY-FISH ([10]; 7 months after transplantation, p<0.01): 73.3%±7.9
- donor-derived BM engraftment, XY-FISH ([10]; 12 months after transplantation): 93.0%±0.8
- donor-derived PBL, XY-FISH ([10]; 12 months after transplantation, p<0.01): 73.0%±10.7
- gross pathological and histological examination [10, 13]: no significant abnormalities
- long-term condition of transplanted animals [10, 13]: remained alive and well
- replacement of the recipient BM ([10]; 6TG pre-conditioning and single cycle chemoselection): > 95%
- body weights ([10]; 6TG-treated transplanted animals): decreased initially during the first week after transplantation in the 6TG-treated animals, but stabilized and all animals regained normal weight thereafter
- engraftment of HPRT-deficient donor BM (XY-FISH), summary ([10]; combined 6TG conditioning and post transplant chemoselection): ~95%
- tolerability of combined 6TG conditioning, HSCT and in vivo chemoselection ([10]; mouse, in vivo): well-tolerated
- histopathology: overall cellularity and hematopoiesis of BM ([10]; regardless of 6TG chemoselection dosage or duration): indistinguishable from the untreated HPRT-wt control
